Experimental data: US20040006236A1, “Diaminopropionic acid derivatives” (priority 1999, published 2004)
Like-named read-outs stand apart in the source and are kept apart here.

Molecular target: T1, LFA-1 binding to immobilized ICAM-1 (Homo sapiens, UniProt P05107+P20701)
T1 construct: made in house; host or cells: transfected 293 cells (LFA-1)
Test: LFA-1/ICAM-1 protein-protein assay (solid-phase ELISA)
Summary of the method: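 Human 5dICAM-Ig (ICAM-1 extracellular domain–IgG Fc) coated on plates; membrane-bound LFA-1 from transfected 293 cells (280 ng/mL) added with compound in Mn2+-containing HEPES buffer pH 7.2, 2 h at 37° C. Bound LFA-1 detected via anti-β2 antibody and HRP/TMB at 450 nm; IC50s determined.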

[1] = read-out: LFA-1/ICAM-1 Protein-Protein Assay IC50
[2] = LFA-1/ICAM-1 Protein-Protein Assay IC50

T1 sequence (P20701 26-1170): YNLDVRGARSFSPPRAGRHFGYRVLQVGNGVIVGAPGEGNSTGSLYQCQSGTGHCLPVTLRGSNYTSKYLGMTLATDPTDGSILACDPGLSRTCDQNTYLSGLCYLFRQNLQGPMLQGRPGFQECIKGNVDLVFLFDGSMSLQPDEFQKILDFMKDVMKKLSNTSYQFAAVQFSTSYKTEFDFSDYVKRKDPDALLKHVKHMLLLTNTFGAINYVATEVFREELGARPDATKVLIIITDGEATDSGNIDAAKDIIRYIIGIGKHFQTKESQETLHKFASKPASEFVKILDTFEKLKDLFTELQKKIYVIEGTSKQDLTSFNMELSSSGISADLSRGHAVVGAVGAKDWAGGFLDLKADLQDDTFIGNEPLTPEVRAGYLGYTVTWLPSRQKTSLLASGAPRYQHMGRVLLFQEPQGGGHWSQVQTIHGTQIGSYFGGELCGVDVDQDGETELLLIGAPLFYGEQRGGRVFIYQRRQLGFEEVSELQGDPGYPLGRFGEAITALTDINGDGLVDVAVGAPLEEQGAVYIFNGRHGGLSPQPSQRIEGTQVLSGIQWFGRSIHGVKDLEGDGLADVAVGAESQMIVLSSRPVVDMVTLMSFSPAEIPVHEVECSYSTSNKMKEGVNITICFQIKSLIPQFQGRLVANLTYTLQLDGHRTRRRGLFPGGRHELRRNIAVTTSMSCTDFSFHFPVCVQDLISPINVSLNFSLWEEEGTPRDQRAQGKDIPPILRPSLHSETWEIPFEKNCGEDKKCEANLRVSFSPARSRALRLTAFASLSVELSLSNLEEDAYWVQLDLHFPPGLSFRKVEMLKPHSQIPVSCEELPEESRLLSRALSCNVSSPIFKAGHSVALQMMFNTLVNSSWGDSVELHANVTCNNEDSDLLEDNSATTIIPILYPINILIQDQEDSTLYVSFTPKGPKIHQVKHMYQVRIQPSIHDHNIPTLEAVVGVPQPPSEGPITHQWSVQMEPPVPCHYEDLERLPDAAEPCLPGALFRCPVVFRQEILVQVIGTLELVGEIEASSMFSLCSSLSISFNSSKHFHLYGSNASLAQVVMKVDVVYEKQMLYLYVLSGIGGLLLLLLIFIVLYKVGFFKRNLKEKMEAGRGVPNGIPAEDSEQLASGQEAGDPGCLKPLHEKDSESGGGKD
T1 sequence (P05107 23-769): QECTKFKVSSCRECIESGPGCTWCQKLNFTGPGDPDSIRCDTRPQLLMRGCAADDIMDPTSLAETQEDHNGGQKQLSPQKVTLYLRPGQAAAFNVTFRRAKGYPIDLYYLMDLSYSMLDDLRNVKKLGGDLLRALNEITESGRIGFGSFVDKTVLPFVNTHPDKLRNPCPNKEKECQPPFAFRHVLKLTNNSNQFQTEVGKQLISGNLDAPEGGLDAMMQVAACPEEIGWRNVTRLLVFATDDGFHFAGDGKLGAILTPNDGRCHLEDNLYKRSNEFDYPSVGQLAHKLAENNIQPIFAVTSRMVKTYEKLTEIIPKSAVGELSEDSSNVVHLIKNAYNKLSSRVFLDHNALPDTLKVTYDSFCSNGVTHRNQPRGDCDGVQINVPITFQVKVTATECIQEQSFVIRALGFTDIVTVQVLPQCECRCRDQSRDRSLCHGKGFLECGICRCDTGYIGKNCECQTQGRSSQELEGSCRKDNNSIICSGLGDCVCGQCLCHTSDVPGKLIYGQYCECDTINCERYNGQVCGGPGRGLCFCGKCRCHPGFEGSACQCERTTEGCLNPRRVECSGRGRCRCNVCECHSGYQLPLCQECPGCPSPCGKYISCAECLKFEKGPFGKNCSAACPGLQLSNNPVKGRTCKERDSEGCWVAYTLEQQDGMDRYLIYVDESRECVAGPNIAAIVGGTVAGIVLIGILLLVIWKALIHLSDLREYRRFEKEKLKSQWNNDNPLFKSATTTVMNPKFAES

Structure (SMILES) | IC50 [1] [nM] | IC50 [2] [nM]
O=C(CC1CCCCC1)NC[C@H](NC(=O)c1ccc(C(=O)NCc2cccc(O)c2)cc1Cl)C(=O)O [Example 78] | 1 | –
O=C(Cc1ccccc1)NC[C@H](NC(=O)c1ccc(C(=O)NCc2cccc(O)c2)cc1Cl)C(=O)O [Example 79] | 2.9 | –
COc1ccc(CC(=O)NC[C@H](NC(=O)c2ccc(C(=O)NCc3cccc(O)c3)cc2Cl)C(=O)O)cc1 [Example 80] | 6 | –
O=C(Cc1ccc([N+](=O)[O-])cc1)NC[C@H](NC(=O)c1ccc(C(=O)NCc2cccc(O)c2)cc1Cl)C(=O)O [Example 81] | 4 | –
O=C(Cc1cccc(C(F)(F)F)c1)NC[C@H](NC(=O)c1ccc(C(=O)NCc2cccc(O)c2)cc1Cl)C(=O)O [Example 82] | 4.3 | –
O=C(Cc1ccc([N+](=O)[O-])cc1[N+](=O)[O-])NC[C@H](NC(=O)c1ccc(C(=O)NCc2cccc(O)c2)cc1Cl)C(=O)O [Example 83] | – | 2.3
O=C(Cc1cccs1)NC[C@H](NC(=O)c1ccc(C(=O)NCc2cccc(O)c2)cc1Cl)C(=O)O [Example 84] | 1 | –
O=C(NCc1cccc(O)c1)c1ccc(C(=O)N[C@@H](CNC(=O)C(c2ccccc2)c2ccccc2)C(=O)O)c(Cl)c1 [Example 86] | 3.3 | –
O=C(Cc1ccc2ccccc2c1)NC[C@H](NC(=O)c1ccc(C(=O)NCc2cccc(O)c2)cc1Cl)C(=O)O [Example 87] | 4.8 | –
O=C(CC1c2ccccc2-c2ccccc21)NC[C@H](NC(=O)c1ccc(C(=O)NCc2cccc(O)c2)cc1Cl)C(=O)O [Example 88] | 1.8 | –
O=C(C[n+]1csc2ccccc21)NC[C@H](NC(=O)c1ccc(C(=O)NCc2cccc(O)c2)cc1Cl)C(=O)O [Example 89] | 5.9 | –
O=C(CSc1ccncc1)NC[C@H](NC(=O)c1ccc(C(=O)NCc2cccc(O)c2)cc1Cl)C(=O)O [Example 90] | 2.4 | –
O=C(CSc1ncccn1)NC[C@H](NC(=O)c1ccc(C(=O)NCc2cccc(O)c2)cc1Cl)C(=O)O [Example 91] | 5 | –
CC(C)(C)C(=O)NC[C@H](NC(=O)c1ccc(C(=O)NCc2cccc(O)c2)cc1Cl)C(=O)O [Example 92] | 2.1 | –
O=C(NCc1cccc(O)c1)c1ccc(C(=O)N[C@@H](CNC(=O)C23CC4CC(CC(C4)C2)C3)C(=O)O)c(Cl)c1 [Example 93] | 0.5 | –
O=C(CCc1ccccc1)NC[C@H](NC(=O)c1ccc(C(=O)NCc2cccc(O)c2)cc1Cl)C(=O)O [Example 94] | 1.5 | –
O=C(NCc1cccc(O)c1)c1ccc(C(=O)N[C@@H](CNC(=O)c2cc([N+](=O)[O-])cc([N+](=O)[O-])c2)C(=O)O)c(Cl)c1 [Example 129] | – | 4.2
O=C(NCc1cccc(O)c1)c1ccc(C(=O)N[C@@H](CNC(=O)c2cnccn2)C(=O)O)c(Cl)c1 [Example 170] | 1.9 | –
O=C(NCc1cccc(O)c1)c1ccc(C(=O)N[C@@H](CNC(=O)c2cc3ccccc3s2)C(=O)O)c(Cl)c1 [Example 175] | 2.6 | –
O=C(NCc1cccc(O)c1)c1ccc(C(=O)N[C@@H](CNC(=O)c2ccc3ncsc3c2)C(=O)O)c(Cl)c1 [Example 177] | 1 | –
O=C(NCc1cccc(O)c1)c1ccc(C(=O)N[C@@H](CNC(=O)c2cccc3ccccc23)C(=O)O)c(Cl)c1 [Example 178] | 2.3 | –
O=C(NCc1cccc(O)c1)c1ccc(C(=O)N[C@@H](CNC(=O)c2ccc3ccccc3c2)C(=O)O)c(Cl)c1 [Example 179] | 3.6 | –
O=C(NCc1cccc(O)c1)c1ccc(C(=O)N[C@@H](CNC(=O)c2cnc3ccccc3c2)C(=O)O)c(Cl)c1 [Example 183] | 12 | –

Structure (SMILES) | IC50 [1] [nM] | IC50 [2] [nM]
O=C(NCc1cccc(O)c1)c1ccc(C(=O)N[C@@H](CNC(=O)c2cc(=O)c3ccccc3o2)C(=O)O)c(Cl)c1 [Example 187] | 12 | –
O=C(NCc1cccc(O)c1)c1ccc(C(=O)N[C@@H](CNC(=O)c2c3c(nc4ccccc24)CCCC3)C(=O)O)c(Cl)c1 [Example 190] | 13 | –
O=C(NCc1cccc(O)c1)c1ccc(C(=O)N[C@@H](CNC(=O)c2ccc3c(c2)S(=O)(=O)c2ccccc2C3=O)C(=O)O)c(Cl)c1 [Example 192] | 1.3 | –
CC(=O)NC[C@H](NC(=O)c1ccc(C(=O)NCc2cccc(O)c2)cc1Cl)C(=O)O [Example 193] | 0.7 | –
CC(C)C(=O)NC[C@H](NC(=O)c1ccc(C(=O)NCc2cccc(O)c2)cc1Cl)C(=O)O [Example 194] | 1.9 | –
CC(C)CC(=O)NC[C@H](NC(=O)c1ccc(C(=O)NCc2cccc(O)c2)cc1Cl)C(=O)O [Example 195] | 2 | –
O=C(NCc1cccc(O)c1)c1ccc(C(=O)N[C@@H](CNC(=O)[C@@H]2CCCN2)C(=O)O)c(Cl)c1 [Example 196] | 2.8 | –
CSCC[C@H](N)C(=O)NC[C@H](NC(=O)c1ccc(C(=O)NCc2cccc(O)c2)cc1Cl)C(=O)O [Example 197] | 4.9 | –
NCCCC[C@H](N)C(=O)NC[C@H](NC(=O)c1ccc(C(=O)NCc2cccc(O)c2)cc1Cl)C(=O)O [Example 198] | 12 | –
N[C@@H](Cc1ccccc1)C(=O)NC[C@H](NC(=O)c1ccc(C(=O)NCc2cccc(O)c2)cc1Cl)C(=O)O [Example 199] | 7.4 | –
NC(=O)C[C@H](N)C(=O)NC[C@H](NC(=O)c1ccc(C(=O)NCc2cccc(O)c2)cc1Cl)C(=O)O [Example 200] | 2.9 | –
N[C@@H](Cc1c[nH]c2ccccc12)C(=O)NC[C@H](NC(=O)c1ccc(C(=O)NCc2cccc(O)c2)cc1Cl)C(=O)O [Example 201] | 7.6 | –
N[C@@H](CCC(=O)NC[C@H](NC(=O)c1ccc(C(=O)NCc2cccc(O)c2)cc1Cl)C(=O)O)C(=O)O [Example 202] | 1.8 | –
O=C(NC[C@H](NC(=O)c1c(Cl)cccc1Cl)C(=O)O)c1ccccc1 [Example 219] | 13 | –
O=C(NC[C@H](NC(=O)c1c(Cl)cccc1Cl)C(=O)O)c1ccc(Br)s1 [Example 223] | 6.4 | –
O=C(NC[C@H](NC(=O)c1c(F)cccc1Cl)C(=O)O)c1ccc(Br)s1 [Example 224] | 24 | –
O=C(NC[C@H](NC(=O)c1c(F)cccc1Cl)C(=O)O)c1ccc2[nH]nnc2c1 [Example 226] | 47 | –
O=C(NCc1cccc(O)c1)c1ccc(C(=O)N[C@@H](CNC(=O)c2cc(F)cc(F)c2)C(=O)O)c(Cl)c1 [Example 252, N-[2-chloro-4-[[[(3-hydroxyphenyl)methyl]amino]carbonyl]benzoyl]-3-(3,5-difluorobenzoyl)amino-L-alanine] | 0.9 | –
O=C(NCc1cccc(O)c1)c1ccc(C(=O)N[C@@H](CNC(=O)c2csnn2)C(=O)O)c(Cl)c1 [Example 254] | 0.7 | –
Cc1nnsc1C(=O)NC[C@H](NC(=O)c1ccc(C(=O)NCc2cccc(O)c2)cc1Cl)C(=O)O [Example 255] | 2.9 | –
O=C(NCc1cccc(O)c1)c1ccc(C(=O)N[C@@H](CNC(=O)c2ccno2)C(=O)O)c(Cl)c1 [Example 256] | 0.8 | –
COc1cscc1C(=O)NC[C@H](NC(=O)c1ccc(C(=O)NCc2cccc(O)c2)cc1Cl)C(=O)O [Example 257] | 1.2 | –
COc1c(C(=O)NC[C@H](NC(=O)c2ccc(C(=O)NCc3cccc(O)c3)cc2Cl)C(=O)O)csc1Cl [Example 258, N-[2-chloro-4-[[[(3-hydroxyphenyl)methyl]amino]carbonyl]benzoyl]-3-(5-chloro-4-methoxythiophene-3-carbonyl)amino-L-alanine] | 2.2 | –
